Test results taken from patent US9694016B2 (Novartis AG, priority 2013, dated 2017).
Read-outs that look alike come from different tables or passages of the source.

Target: b-Raf (V600E) (Homo sapiens (Human), UniProt P15056, V600E)
Conditions: read-out: b-Raf IC-50, AlphaScreen
[1] = 60 min pre-incubation, reaction 3 hours at room temperature
[2] = 60 min pre-incubation, 3 hours reaction

b-Raf (V600E), sequence (P15056 whole entry V600E): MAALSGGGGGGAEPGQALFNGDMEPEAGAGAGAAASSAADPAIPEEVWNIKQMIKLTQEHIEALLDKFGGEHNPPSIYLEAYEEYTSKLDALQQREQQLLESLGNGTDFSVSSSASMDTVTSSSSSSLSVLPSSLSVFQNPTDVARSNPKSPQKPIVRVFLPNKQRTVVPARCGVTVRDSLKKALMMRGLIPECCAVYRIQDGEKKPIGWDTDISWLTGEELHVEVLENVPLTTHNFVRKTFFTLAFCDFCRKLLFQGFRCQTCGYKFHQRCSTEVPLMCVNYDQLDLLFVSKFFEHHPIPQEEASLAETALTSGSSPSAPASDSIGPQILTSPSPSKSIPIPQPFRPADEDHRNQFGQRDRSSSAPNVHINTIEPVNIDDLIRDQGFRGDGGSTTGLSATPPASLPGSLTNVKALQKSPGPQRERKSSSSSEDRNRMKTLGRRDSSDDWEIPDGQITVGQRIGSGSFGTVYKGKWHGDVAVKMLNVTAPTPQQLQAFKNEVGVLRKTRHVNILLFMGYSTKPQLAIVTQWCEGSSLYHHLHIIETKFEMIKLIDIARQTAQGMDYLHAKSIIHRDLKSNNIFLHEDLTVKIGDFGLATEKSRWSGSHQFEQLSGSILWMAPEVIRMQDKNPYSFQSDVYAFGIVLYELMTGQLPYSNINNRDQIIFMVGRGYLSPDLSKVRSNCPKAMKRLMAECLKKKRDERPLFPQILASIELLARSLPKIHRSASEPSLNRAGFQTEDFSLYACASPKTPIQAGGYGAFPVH

Row | Structure (SMILES) | IC50 (Table 2, 3 hours reaction) | IC50 [1] | also measured
1 | Cc1ncc(NC(=O)c2cccc(C(F)(F)F)c2)cc1-c1cnc(OC2CNC2)c(N2CCOCC2)c1 [Example 325, N-(6′-(azetidin-3-yloxy)-2-methyl-5′-morpholino-[3,3′-bipyridin]-5-yl)-3-(trifluoromethyl)benzamide] | 300 nM |  | 
2 | Cc1ncc(NC(=O)c2ccnc(C(C)(F)F)c2)cc1-c1cc(NCCO)nc(N2CCOC[C@H]2C)c1 [Example 1139, (R)-2-(1,1-difluoroethyl)-N-(2′-((2-hydroxyethyl)amino)-2-methyl-6′-(3-methylmorpholino)-[3,4′-bipyridin]-5-yl)isonicotinamide] |  | 14.3 nM | 
3 | Cc1ccc(NC(=O)c2ccnc(C(C)(C)O)c2)cc1-c1cc(N2CCOCC2)n(C)c(=O)c1 [Example 483, 2-(2-hydroxypropan-2-yl)-N-(4-methyl-3-(1-methyl-6-morpholino-2-oxo-1,2-dihydropyridin-4-yl)phenyl)isonicotinamide] |  |  | IC50 [2]: 3.5 nM
4 | CCOc1ncc(-c2cc(NC(=O)c3cc(C4CC4)on3)cnc2C)cc1N1CCOCC1 [Example 245, 5-cyclopropyl-N-(6′-ethoxy-2-methyl-5′-morpholino-[3,3′-bipyridin]-5-yl)isoxazole-3-carboxamide] | 1.3 nM |  | 
5 | Cc1ncc(NC(=O)c2cc(CN(C)C)cc(C(F)(F)F)c2)cc1-c1cc(N2CCOCC2)nc(N2CC(O)C2)c1 [Example 1085, 3-((dimethylamino)methyl)-N-(2′-(3-hydroxyazetidin-1-yl)-2-methyl-6′-morpholino-[3,4′-bipyridin]-5-yl)-5-(trifluoromethyl)benzamide] |  | 108 nM | 
6 | Cc1ccc(NC(=O)c2ccnc(C(C)(C)F)c2)cc1-c1cnc(OC(C)C)c(N2CCOCC2)c1 [Example 946, 2-(2-fluoropropan-2-yl)-N-(3-(6-isopropoxy-5-morpholinopyridin-3-yl)-4-methylphenyl)isonicotinamide] |  | 2.36 nM | 
7 | Cc1ccc(NC(=O)c2ccnc(C(C)(C)C#N)c2)cc1-c1nc2c(c(N3CCOCC3)n1)CN(C(=O)OC(C)(C)C)CC2 [Example 864, tert-butyl 2-(5-(2-(2-cyanopropan-2-yl)isonicotinamido)-2-methylphenyl)-4-morpholino-7,8-dihydropyrido[4,3-d]pyrimidine-6(5H)-carboxylate] |  | 70.2 nM | 
8 | Cc1ccc(NC(=O)c2cccc(C(F)F)c2)cc1-c1cc(N2CCOCC2)c(=O)n(CCC#N)c1 [Example 336, N-(3-(1-(2-cyanoethyl)-5-morpholino-6-oxo-1,6-dihydropyridin-3-yl)-4-methylphenyl)-3-(difluoromethyl)benzamide] | 5.5 nM |  | 
9 | Cc1ccc(NC(=O)c2ccnc(C(C)(F)F)c2)cc1-c1cc(C2COCCO2)nc(N2CCOCC2)c1 (stereo not drawn) [Example 1145] |  | 1.3 nM | 
10 | Cc1ncc(NC(=O)c2cccc(S(C)(=O)=O)c2)cc1-c1cc(N2CCOCC2)nc(N2CC(O)C2)c1 [Example 1084, N-(2′-(3-hydroxyazetidin-1-yl)-2-methyl-6′-morpholino-[3,4′-bipyridin]-5-yl)-3-(methylsulfonyl)benzamide] |  | 23.3 nM | 
11 | Cc1ccc(NC(=O)c2ccnc(C(F)(F)F)c2)cc1-c1cc(NC[C@@H](C)O)nc(N2CCOCC2)n1 [Example 1023, (R)—N-(3-(6-((2-hydroxypropyl)amino)-2-morpholinopyrimidin-4-yl)-4-methylphenyl)-2-(trifluoromethyl)isonicotinamide] |  | 2.32 nM | 
12 | CCOc1ncc(-c2cc(NC(=O)c3cnnc(C(F)(F)F)c3)ccc2C)cc1N1CCOCC1 [Example 280, N-(3-(6-ethoxy-5-morpholinopyridin-3-yl)-4-methylphenyl)-6-(trifluoromethyl)pyridazine-4-carboxamide] | 1.1 nM |  | 
13 | Cc1ccc(NC(=O)c2ccnc(C(C)(C)C#N)c2)cc1-c1cc(OCCO)nc(N2CCOCC2)c1 [Example 1161, 2-(2-cyanopropan-2-yl)-N-(3-(2-(2-hydroxyethoxy)-6-morpholinopyridin-4-yl)-4-methylphenyl)isonicotinamide] |  | 1.5 nM | 
14 | Cc1ncc(NC(=O)c2ccnc(C(C)(C)F)c2)cc1-c1cnc(N(C)C)c(N2CCOCC2)c1 [Example 268, N-(6′-(dimethylamino)-2-methyl-5-morpholino-[3,3′-bipyridin]-5-yl)-2-(2-fluoropropan-2-yl)isonicotinamide] | 1.6 nM |  | 
15 | Cc1ncc(NC(=O)c2ccnc(C(C)(C)F)c2)cc1-c1cncc(N2CCOCC2)n1 [Example 534, 2-(2-fluoropropan-2-yl)-N-(6-methyl-5-(6-morpholinopyrazin-2-yl)pyridin-3-yl)isonicotinamide] |  |  | IC50 [2]: 6 nM
16 | CCOc1ncc(-c2cc(NC(=O)c3ccnc(C(C)(C)C#N)c3)cnc2C)cc1N1CCOCC1 [Example 239, 2-(2-cyanopropan-2-yl)-N-(6′-ethoxy-2-methyl-5′-morpholino-[3,3′-bipyridin]-5-yl)isonicotinamide] | 5.6 nM |  | 
17 | COc1nnc(-c2cc(C(=O)Nc3ccnc(C(F)(F)F)c3)ccc2C)cc1N1CCOCC1 [Example 1017, 3-(6-methoxy-5-morpholinopyridazin-3-yl)-4-methyl-N-(2-(trifluoromethyl)pyridin-4-yl)benzamide] |  | 0.98 nM | 

Row | Structure (SMILES) | IC50 (Table 2, 3 hours reaction) | IC50 [1] | also measured
18 | Cc1ncc(NC(=O)c2cccc(C(F)F)c2)cc1-c1cc(N2CCOCC2)n(C)c(=O)c1 [Example 506, 3-(difluoromethyl)-N-(1′,2-dimethyl-6′-morpholino-2′-oxo-1′,2′-dihydro-[3,4′-bipyridin]-5-yl)benzamide] |  |  | IC50 [2]: 1.8 nM
19 | Cc1ncc(NC(=O)c2ccnc(C(C)C)c2)cc1-c1cc(N2CCOCC2)c2nccn2n1 [Example 869, 2-isopropyl-N-(6-methyl-5-(8-morpholinoimidazo[1,2-b]pyridazin-6-yl)pyridin-3-yl)isonicotinamide] |  | 1.3 nM | 
20 | Cc1ncc(NC(=O)c2ccnc(C(C)(F)F)c2)cc1-c1cnc(OC(F)F)c(N2CCOCC2)c1 [Example 980, 2-(1,1-difluoroethyl)-N-(6′-(difluoromethoxy)-2-methyl-5′-morpholino-[3,3′-bipyridin]-5-yl)isonicotinamide] |  | 1.99 nM | 
21 | CCOc1ncc(-c2cc(NC(=O)c3ccnc(C(F)(F)F)c3)cnc2C)cc1N1CCOCC1 [Example 246, N-(6′-ethoxy-2-methyl-5′-morpholino-[3,3′-bipyridin]-5-yl)-2-(trifluoromethyl)isonicotinamide] | 1.2 nM |  | 
22 | CCn1cc(C(=O)Nc2cnc(C)c(-c3cc(N4CCOCC4)nc(N4CC(O)C4)c3)c2)cc(C(F)(F)F)c1=O [Example 1086, 1-ethyl-N-(2′-(3-hydroxyazetidin-1-yl)-2-methyl-6′-morpholino-[3,4′-bipyridin]-5-yl)-6-oxo-5-(trifluoromethyl)-1,6-dihydropyridine-3-carboxamide] |  | 20.7 nM | 
23 | Cc1ncc(NC(=O)c2cccc(C(F)(F)F)c2)cc1-c1cc(N2CCOCC2)nc(N2C(=O)OC[C@@H]2C)n1 [Example 781, (S)—N-(6-methyl-5-(2-(4-methyl-2-oxooxazolidin-3-yl)-6-morpholinopyrimidin-4-yl)pyridin-3-yl)-3-(trifluoromethyl)benzamide] |  |  | IC50 [2]: 10.8 nM
24 | Cc1ncc(NC(=O)c2ccnc(C(C)(C)F)c2)cc1-c1cnc(F)c(N2CCOCC2)c1 [Example 298, N-(6′-fluoro-2-methyl-5′-morpholino-[3,3′-bipyridin]-5-yl)-2-(2-fluoropropan-2-yl)isonicotinamide] | 3.9 nM |  | 
25 | Cc1ncc(NC(=O)c2cccc(OC(C)C)c2)cc1-c1cc(N2CCOCC2)c(=O)n(C)c1 [Example 398, N-(1′,2-dimethyl-5′-morpholino-6′-oxo-1′,6′-dihydro-[3,3′-bipyridin]-5-yl)-3-isopropoxybenzamide] | 8.4 nM |  | 
26 | Cc1ncc(NC(=O)c2cnnc(C3(C#N)CC3)c2)cc1-c1cnc(OCC(F)F)c(N2CCOCC2)c1 [Example 936, 6-(1-cyanocyclopropyl)-N-(6′-(2,2-difluoroethoxy)-2-methyl-5′-morpholino-[3,3′-bipyridin]-5-yl)pyridazine-4-carboxamide] |  | 7.55 nM | 
27 | CCn1cc(C(=O)Nc2cnc(C)c(-c3cc(N4CCOCC4)n(C)c(=O)c3)c2)cc(C(F)(F)F)c1=O [Example 502, N-(1′,2-dimethyl-6′-morpholino-2′-oxo-1′,2′-dihydro-[3,4′-bipyridin]-5-yl)-1-ethyl-6-oxo-5-(trifluoromethyl)-1,6-dihydropyridine-3-carboxamide] |  |  | IC50 [2]: 20 nM
28 | Cc1ccc(NC(=O)c2ccnc(C(C)(F)F)c2)cc1-c1cc(N2CCOCC2)c(OCCO)nn1 [Example 587, 2-(1,1-difluoroethyl)-N-(3-(6-(2-hydroxyethoxy)-5-morpholinopyridazin-3-yl)-4-methylphenyl)isonicotinamide] |  |  | IC50 [2]: 1.1 nM
29 | Cc1ncc(NC(=O)c2ccnc(C(C)(C)C#N)c2)cc1-c1cc(N2CCOCC2)nc(N2CCOCC2)c1 [Example 1123, 2-(2-cyanopropan-2-yl)-N-(2-methyl-2′,6′-dimorpholino-[3,4′-bipyridin]-5-yl)isonicotinamide] |  | 10.8 nM | 
30 | Cc1ccc(NC(=O)c2ccnc(C(F)F)c2)cc1-c1cc(NCCO)nc(N2CCOCC2)c1F [Example 1009, 2-(difluoromethyl)-N-(3-(3-fluoro-6-((2-hydroxyethyl)amino)-2-morpholinopyridin-4-yl)-4-methylphenyl)isonicotinamide] |  | 14.8 nM | 
31 | COc1nnc(-c2cc(NC(=O)c3cnnc(C(F)(F)F)c3)ccc2C)cc1N1CCOCC1 [Example 551, N-(3-(6-methoxy-5-morpholinopyridazin-3-yl)-4-methylphenyl)-6-(trifluoromethyl)pyridazine-4-carboxamide] |  |  | IC50 [2]: 1.2 nM
32 | Cc1ncc(NC(=O)c2ccnc(C(C)C)c2)cc1-c1cc(N2CCOCC2)nc(N2CCOCC2)c1 [Example 1119, 2-isopropyl-N-(2-methyl-2′,6′-dimorpholino-[3,4′-bipyridin]-5-yl)isonicotinamide] |  | 2 nM | 
33 | Cn1cc(-c2cc(NC(=O)c3cccc(C(F)F)c3)ccc2Cl)cc(N2CCOCC2)c1=O [Example 412, N-(4-chloro-3-(1-methyl-5-morpholino-6-oxo-1,6-dihydropyridin-3-yl)phenyl)-3-(difluoromethyl)benzamide] | 0.8 nM |  | 
